Reference: ChEMBL document CHEMBL6092220 (J Med Chem, 2024)
Activity calls are given as the source filed them. No cut-off for these calls is given here.

Legend:
[1] = system: SU-DHL-1; assay: Antiproliferative activity against human SU-DHL-1 cells assessed as cell growth inhibition incubated for 4 days by celltiter-glo assay; type: functional, cell-based; conditions: SU-DHL-1, 96 h
[2] = molecular target: Protein cereblon/Signal transducer and activator of transcription 4 (Homo sapiens, UniProt Q96SW2+Q14765); assay: PROTAC activity at STAT4/CRBN in human Pfeiffer cells transfected with STAT3 K658R mutant assessed as reduction in STAT4 level upto 40 uM incubated for 20 hrs by Western blot analysis; type: cell-based
[3] = Drug concentration in female CB17 SCID mouse liver at 5 mg/kg, iv measured at 3 hrs by LC-MS/MS analysis; type: ADME, organism-based; conditions: read-out: Ct
[4] = Apparent permeability across basolateral to apical side in human Caco-2 cells; type: ADME, cell-based
[5] = Apparent volume of distribution in Beagle dog at 1 mg/kg, iv; type: ADME, organism-based, Canis lupus familiaris; conditions: in vivo, read-out: Vz
[6] = Stability in rat Hepatocyte assessed as half life; type: ADME, cell-based; conditions: hepatocytes
[7] = Cmax in ICR mouse at 5 mg/kg, iv; type: ADME, organism-based; conditions: in vivo
[8] = Stability in Non human primate Hepatocyte assessed as half life; type: ADME, cell-based; conditions: hepatocytes
[9] = molecular target: T1, Protein cereblon/Signal transducer and activator of transcription 1-alpha/beta (Homo sapiens, UniProt P42224+Q96SW2); assay: PROTAC activity at STAT1/CRBN in human SU-DHL-1 cells assessed as reduction in STAT1 level upto 40 uM incubated for 20 hrs by Western blot analysis; type: cell-based
[10] = molecular target: T2, Protein cereblon/Signal transducer and activator of transcription 3 (Mus musculus) (UniProt P42227+Q8C7D2); assay: In-vivo PROTAC activity at STAT3/CRBN in female CB17 SCID mouse assessed as reduction in STAT3 level liver at 5 mg/kg, iv measured at 72 hrs by immunobloting analysis; type: functional, organism-based; set-up: scale not given: the % may be the effect or the level left
[11] = molecular target: T1, Protein cereblon/Signal transducer and activator of transcription 1-alpha/beta; assay: PROTAC activity at STAT1/CRBN in human MOLM16 cells assessed as reduction in STAT1 level at > 8 uM incubated for 4 hrs by Western blot analysis; type: cell-based
[12] = Drug concentration in female CB17 SCID mouse plasma at 5 mg/kg, iv measured at 6 hrs by LC-MS/MS analysis; type: ADME, organism-based
[13] = molecular target: Cytochrome P450 3A4 (Homo sapiens, UniProt P08684); assay: Inhibition of CYP3A4 (unknown origin) using midazolam as substrate; type: ADME
[14] = molecular target: T2, Protein cereblon/Signal transducer and activator of transcription 3 (Mus musculus); assay: In-vivo PROTAC activity at STAT3/CRBN in female CB17 SCID mouse assessed as reduction STAT3 level liver at 10 mg/kg, iv measured at 48 hrs by Western blot analysis; type: functional, organism-based; set-up: scale not given: the % may be the effect or the level left
[15] = molecular target: Signal transducer and activator of transcription 3 (Homo sapiens, UniProt P40763); assay: Binding affinity to STAT3 (unknown origin) assessed as maximum inhibition by FP assay relative to control
[16] = molecular target: T1, Protein cereblon/Signal transducer and activator of transcription 1-alpha/beta; assay: PROTAC activity at STAT1/CRBN in human Pfeiffer cells transfected with STAT3 K658R mutant assessed as reduction in STAT1 level upto 40 uM incubated for 20 hrs by Western blot analysis; type: cell-based
[17] = molecular target: Protein cereblon/Signal transducer and activator of transcription 5A (Homo sapiens) (UniProt P42229+Q96SW2); assay: PROTAC activity at STAT5A/CRBN in human PBMC cells assessed as reduction in STAT5A level upto 40 uM incubated for 20 hrs by Western blot analysis; type: cell-based
[18] = Plasma protein binding in human assessed as unbound fraction at 10 uM; type: ADME, cell-free
[19] = Stability in mouse plasma assessed as half life; type: ADME, cell-free
[20] = molecular target: Protein cereblon/Signal transducer and activator of transcription 2 (Homo sapiens) (UniProt Q96SW2+P52630); assay: PROTAC activity at STAT2/CRBN in human Pfeiffer cells transfected with STAT3 K658R mutant assessed as reduction in STAT2 level upto 40 uM incubated for 20 hrs by Western blot analysis; type: cell-based
[21] = molecular target: T3, Protein cereblon/Signal transducer and activator of transcription 3 (Homo sapiens, UniProt P40763+Q96SW2); assay: PROTAC activity at his-SUMO-tagged STAT3 (127 to 688 residues)/CRBN in human SU-DHL-1 cells assessed as reduction in STAT3 level upto 40 uM incubated for 20 hrs by Western blot analysis relative to control; type: cell-based; set-up: scale not given: the % may be the effect or the level left
[22] = Drug concentration in female CB17 SCID mouse spleen at 5 mg/kg, iv measured at 6 hrs by LC-MS/MS analysis; type: ADME, organism-based; conditions: read-out: Ct
[23] = Drug concentration in female CB17 SCID mouse liver at 5 mg/kg, iv measured at 24 hrs by LC-MS/MS analysis; type: ADME, organism-based; conditions: read-out: Ct
[24] = system: SU-DHL-1; assay: PROTAC activity at STAT5/CRBN in human SU-DHL-1 cells assessed as reduction in STAT5 level upto 40 uM incubated for 20 hrs by Western blot analysis; type: cell-based
[25] = molecular target: T1, Protein cereblon/Signal transducer and activator of transcription 1-alpha/beta; assay: PROTAC activity at STAT1/CRBN in human PBMC cells assessed as reduction in STAT1 level incubated for 20 hrs by Western blot analysis; type: cell-based
[26] = Toxicity in iv dosed mouse assessed as weight gain; type: organism-based; conditions: in vivo, dose 5-20 mg/kg
[27] = molecular target: Protein cereblon/Signal transducer and activator of transcription 5B (Homo sapiens) (UniProt P51692+Q96SW2); assay: PROTAC activity at STAT5B/CRBN in human PBMC cells assessed as reduction in STAT5B level upto 40 uM incubated for 20 hrs by Western blot analysis; type: cell-based
[28] = molecular target: Signal transducer and activator of transcription 6 (Homo sapiens, UniProt P42226); assay: Binding affinity to STAT6 (unknown origin) by FP assay
[29] = molecular target: hERG (KCNH2) (Homo sapiens, UniProt Q12809); assay: Inhibition of hERG at 30 uM relative to control; type: toxicity
[30] = Stability in rat plasma assessed as half life; type: ADME, cell-free
[31] = Drug concentration in female CB17 SCID mouse spleen at 5 mg/kg, iv measured at 1 hr by LC-MS/MS analysis; type: ADME, organism-based; conditions: read-out: Ct
[32] = molecular target: Cytochrome P450 2B6 (Homo sapiens, UniProt P20813); assay: Inhibition of CYP2B6 (unknown origin); type: ADME
[33] = molecular target: T3, Protein cereblon/Signal transducer and activator of transcription 3; assay: PROTAC activity at his-SUMO-tagged STAT3 (127 to 688 residues)/CRBN in human SU-DHL-1 cells assessed as reduction in STAT3 level at 0.1 to 4000 nM incubated for 20 hrs by Western blot analysis relative to control; type: cell-based; conditions: dose 0.1-4000 nM
[34] = Antiproliferative activity against human MOLM16 cells assessed as cell growth inhibition incubated for 4 days by celltiter-glo assay; type: functional, cell-based, MOLM-16; conditions: MOLM16, 96 h
[35] = Drug concentration in female CB17 SCID mouse spleen at 5 mg/kg, iv measured at 3 hrs by LC-MS/MS analysis; type: ADME, organism-based; conditions: read-out: Ct
[36] = Stability in mouse plasma assessed as parent compound remaining at […]; type: ADME, cell-free; conditions: read-out: Stability
[37] = molecular target: T2, Protein cereblon/Signal transducer and activator of transcription 3 (Mus musculus); assay: In-vivo PROTAC activity at STAT3/CRBN in female CB17 SCID mouse assessed as STAT3 depletion spleen at 5 mg/kg, iv measured at 1 hr by immunobloting analysis; type: functional, organism-based
[38] = Stability in rat plasma assessed as parent compound remaining at […]; type: ADME, cell-free; conditions: read-out: Stability

SMILES: COC(=O)N1CC[C@H]2CC[C@@H](C(=O)N[C@@H](CCC(N)=O)C(=O)N[C@@H](Cc3ccc(F)c(F)c3)C(=O)N3CCC(CCC#Cc4cccc5c4CN(C4CCC(=O)NC4=O)C5=O)CC3)N2C(=O)[C@@H](NC(=O)c2cc3cc(C(F)(F)P(=O)(O)O)ccc3s2)C1 (stereo partly drawn)
- IC50 [1]: 430 nM
- Activity [2]: inactive
- concentration at 3 h [3]: 3850 ng/g
- Papp [4]: 0.13 10^-6 cm/s
- Vd [5]: 0.29 L/kg
- t1/2 [6]: > 2 h
- Cmax [7]: 130 µg/mL
- half-life [8]: > 2 h
- Activity [9]: inactive
- Activity [10]: > 90%
- Activity [11]: Active
- concentration at 6 h [12]: 30.3 µg/mL
- IC50 [13]: > 10000 nM
- Activity [14]: > 90%
- Imax [15]: 100%
- Activity [16]: inactive
- Activity [17]: inactive
- Fu [18]: 0.5%
- t1/2 [19]: > 2 h
- Activity [20]: inactive
- Activity [21]: > 95%
- concentration at 6 h [22]: 1950 ng/g
- concentration at 24 h [23]: 1250 ng/g
- Activity [24]: inactive
- DC50 [25]: 1600 nM
- Activity [26]: Non-toxic
- Activity [27]: inactive
- IC50 [28]: > 10000 nM
- inhibition at 30 µM [29]: 1.1%
- t1/2 [30]: > 2 h
- concentration at 1 h [31]: 2870 ng/g
- IC50 [32]: > 10000 nM
- Emax [33]: > 95%
- IC50 [34]: 38 nM
- concentration at 3 h [35]: 1920 ng/g
- remaining at 2 h [36]: 101%
- Activity [37]: > 70%
- remaining at 2 h [38]: 94%
